Test results taken from patent US20070274947A1, “Antisense Oligonucleotides Directed to Ribonucleotide Reductase R1 and Uses Thereof in the Treatment of Cancer” (priority 2003, published 2007).
Entries after “also recorded” stand apart in the source; their conditions may differ.

Legend:
[1] = rat
Procedure: Ten rats/sex/group were administered SEQ ID NO:1 at doses of 0 (control), 2, 10, or 50 mg/kg/day. Animals in the control group received the vehicle article, PBS. […] An additional 5 rats/group were included in the control and high dose group as recovery animals, and were allowed a 14-day observation period following the treatment period. Parameters assessed during the study include mortality, clinical signs, body weights, food consumption, opthalmoscopic examination, clinical pathology assessment (hematology, coagulation, clinical chemistry, and urinalysis). Terminal procedures included a complete necropsy of each animal, and histopathologic evaluation of selected tissues for animals in the control and high dose groups. For toxicokinetic evaluations, an additional 8 rats/sex were included in the high dose groups. Serial and terminal blood samples were withdrawn from satellite animals at selected time points during infusion and after the end of infusion.

[2] = tested on: Caki-1 human kidney cancer cells; assay: Caki-1 renal tumor growth in SCID/beige mice; format: in vivo; details: SCID/beige mice (NK, T and B cell deficient); 10 mg/kg/2 days i.v.; 32 days
Procedure: To address whether SEQ ID NO:1 anti-tumor activity is NK mediated, tumor xenograft growth was assessed in SCID/beige mice that are NK, T and B cell deficient. Caki-1 human kidney cancer cells (5×10^6 cells in 100 μl of PBS) were subcutaneously injected into the right flank of 6-7 weeks old female SCID/beige mice. After the size of tumor reached an approximate volume of 100 mm^3, 7 days post tumor cell injection, SEQ ID NO:1 and SEQ ID NO:1-SCR were administered (10 mg/kg/2 days, i.v.). Control animals received saline alone for the same period. Caliper measurements at 1 week intervals were used to calculate tumor volumes. Each point in FIG. 3 (top) represents mean tumor volume calculated from 10 animals per experimental group. After 32 days the mice were sacrificed and the tumors weighed. Each bar in FIG. 3 (bottom) represents the mean tumor weight and standard error calculated for each treatment group.

SK-OV-3 (ovary) = assay: Colony forming ability, SK-OV-3; format: cell-based, human; details: 0.2 μM antisense oligonucleotide/lipofectin, 4 hours
Procedure: The effect of SEQ ID NO:1 on the colony forming ability were evaluated in the following human tumor cell lines:
Tumor cells were washed in 5 ml of phosphate buffered saline, pH 7.2, prior to 0.2 μM antisense oligonucleotide/lipofectin treatment for 4 hours. The medium was removed and the cells were gently washed with 5 ml of growth medium. The cells were then cultured in growth medium for seven to ten days. Surviving colonies were visualized by methylene blue staining and colonies of 50 or more cells were scored (Choy et al., 1988 and Huang and Wright, 1994). Results are summarized from 4 to 8 trials for each tumor cell line.

R1 mRNA = assay: Northern blot of R1 mRNA in HT-29 cells; format: cell-based, human; details: 0.2 μM, four hours with Lipofectin, 16 hours recovery
Procedure: Total RNA was isolated using TRIzol reagent (GIBCO BRL) after cells were treated with 0.2 μM SEQ ID NO:1 for four hours in the presence of cationic lipid (Lipofectin reagent, GIBCO BRL), washed with PBS, and incubated for 16 hours to recover in normal medium containing 10% FBS. Northern blot analysis was performed as previously described (Hurta and Wright, 1995). RNA was subjected to electrophoresis through 1% formaldehyde agarose gels followed by transfer to nylon membranes. Blots were hybridized in the presence of a R1 fragment (McClarty et al, 1987). Glyceraldehyde-3-phosphate dehydrogenase (GAPDH) mRNA levels were simultaneously probed for RNA loading controls.

[3] = tested on: C8161 human melanoma cells; assay: Experimental metastasis of C8161 cells treated ex vivo (lung nodules, CD-1 athymic nude mice); format: in vivo; details: cells treated 4 hr with 0.2 μM plus Lipofectin before tail vein injection; 4 weeks; vs lipofectin alone
Procedure: A. Experimental metastasis of C8161 human melanoma cells treated with SEQ ID NO:1 was estimated as follows. Aliquots of C8161 cell suspension were seeded into 100 mm tissue culture dishes at a density of 2×10^6 and incubated overnight at 37° C. in α-MEM medium supplemented with 10% FBS. Following a wash with 10 ml of PBS, cells were treated for 4 hr with 0.2 μM of SEQ ID NO:1 in the presence of a cationic lipid (Lipofectin reagent, final concentration, 10 μg/ml, Gibco BRL) or with lipofectin alone (CONTROL) as a control. SEQ ID NO:1 was removed by washing the cells once with PBS. Cells were then collected by trypsinization and centrifugation. Approximately 1×10^5 cells suspended in 0.2 ml of PBS were injected into the tail veins of 6-8 week-old CD-1 athymic female nude mice. Estimates of the number of lung tumors were made 4 weeks later by counting metastatic foci formed on the excised lung surface, see FIG. 12A. Bars represent mean number of tumor nodules in lungs obtained from 7-9 animals per experimental group.

[4] = tested on: Human taxol-resistant promyelocytic leukemia cells (HL-60); assay: Taxol-resistant promyelocytic leukemia (HL-60) growth in SCID mice; format: in vivo; details: SEQ ID NO:1 10 mg/kg i.v. every other day, taxol 10 mg/kg i.p. once a week
Procedure: Human taxol-resistant promyelocytic leukemia cells (HL-60) (7×10^6 cells in 100 μl of PBS) were injected into the right flank of 6-7 weeks old female SCID mice. After the size of tumor reached an approximate volume of 100 mm^3, 10 days post tumor cell injection, SEQ ID NO:1 was administered by bolus infusion into the tail vein every other day at 10 mg/kg. Control animals received saline alone for the same period. The anti-tumor effect of SEQ ID NO:1 was further compared to that of taxol. Taxol was administered i.p. once a week at a dose of 10 mg/kg. Anti-tumor activity was estimated by the inhibition of tumor volume, which was measured with caliper (FIG. 17A). Each point represents mean tumor volume calculated from 10 animals per experimental group. In addition animals were sacrificed and tumor weights taken at the end of the study.

[5] = cynomolgus monkey, in vivo

Substance: 5′-CTCTAGCGTCTTAAAGCCGA-3′ (CTCTAGCGTCTTAAAGCCGA; chemistry not given here) [SEQ ID NO:1]
- sex difference in plasma concentrations during infusion [1]: no apparent differences in the levels between males and females
- mean Cmax ([1]; in vivo): 40.4 µg/mL
- median time at which Cmax occurred ([1]; in vivo): 96 h
- time to steady state of continuous infusion ([1]; 50 (40) mg/kg/day continuous infusion): approximately 24 h
- elimination t1/2 ([1]; after 14-day continuous infusion, high dose): 8.6 h
- steady state level (Css) in plasma ([1]; continuous i.v. infusion 50 mg/kg/day (reduced to 40 mg/kg/day), 14 days): 34.8 µg/mL
- tumor volume and tumor weight [2]: highly effective
- inhibition in colony forming ability (SK-OV-3 (ovary)): greater than 60%
- R1 mRNA level (R1 mRNA): specifically decreases R1 mRNA; also recorded: significant decrease; also recorded: decreased R1 mRNA levels
- number of lung tumor nodules [3]: significantly reduced the formation of lung colonies
- tumor growth / tumor weight [4]: significant reduction of tumor weight
- APTT values compared to control [5]: significantly longer
- WBC counts [5]: marked increase
- appetite [5]: significant decrease in appetite noted in the majority of high dose males
- clinical signs [5]: Treatment-related reversible clinical signs were limited to a few high dose animals
- lymphoid atrophy [5]: minimal to moderate lymphoid atrophy
- ophthalmoscopy [5]: Bilateral retinopathy was noted in one high dose male
- organ weights [5]: slight increase in relative and absolute kidney weights
- red blood cell, hematocrit, and hemoglobin values [5]: slight to moderate reductions
- summary of effects ([5]; 50 mg/kg/day): reversible signs of weakness, decreases in body weight and appetite, prolongation of APTT, anemia, thrombocytopenia, and monocytosis
